Measured values from patent US20230150980A1, “COLLAGEN 1 TRANSLATION INHIBITORS AND METHODS OF USE THEREOF” (Anima Biotech Inc., priority 2020, published 2023).
Structures can show the parent of a compound that is named as a salt.

System: collagen 1
Assay: WI-38 collagen 1 inhibition assay (anti-Collagen I immunofluorescence);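 further: minus sign means inactive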
Format: cell-based
Conditions: cellular EC50, WI-38 human lung fibroblasts, values are LogEC50 classes
Method: WI-38 cells (ATCC® CCL-75™) were maintained in MEM EAGLE (NEAA) W. GLUTAMIN (Biological Industries, Cat. 06-1040-15-1A) containing 10% fetal bovine serum (FBS) and 1% Penicillin-Streptomycin Solution. To synchronize the cells (cell cycle synchronization) prior to induction of collagen synthesis, the cells were starved using DMEM-low glucose supplemented with 0.25% FBS for two hours and then without FBS for 24 hours. To induce collagen synthesis, the cells were treated with a collagen induction cocktail for the indicated time. Compounds were added with induction.
Cells in 96-well or 384-well plates were fixed for 20 min in 4% paraformaldehyde (PFA, ENCO, Cat. sc-281692). Following two washes with 1×PBS, cells were treated with hydrogen peroxide (Acros, Cat: 7722-84-1) for 10 minutes and then washed twice with 1×PBS. Cells were then incubated over-night at 4° C. with Anti-Collagen I (Sigma-Aldrich, Cat: C 2456) antibody and washed three times with 1×PBS. Cell were then incubated with a suitable secondary fluorescently-tagged antibody and nuclei stained with DAPI, for 1 hour, and then washed 3 times with 1×PBS.
Cell images were taken with Operetta (Perkin Elmer, USA), a wide-field fluorescence microscope at 20× magnification. After acquisition, the images were transferred to Columbus software (Perkin-Elmer) for image analysis. In Columbus, cells were identified by their nucleus, using the “Find Nuceli” module and cytoplasm was detected based on the secondary antibody channel. Subsequently, the fluorescent signal was enumerated in the identified cell region. Data was exported to a data analysis and visualization software, Tibco Spotfire, USA.

Row | SMILES | COL1 Efficacy (LogEC50)
1 | Clc1ccc2[nH]c(CN3CCN(c4ccncc4)CC3)cc2c1 [compound 245, 5-chloro-2-[[4-(4-pyridyl)piperazin-1-yl]methyl]-1H-indole formate] | −
2 | Nc1ccc2[nH]c(CN3CCN(c4ccncc4)CC3)cc2c1 [compound 246, 2-[[4-(4-pyridyl)piperazin-1-yl]methyl]-1H-indol-5-amine] | ++ (++: −5 to −6)
3 | Clc1cccc2cc(CN3CCN(c4ccncc4)CC3)[nH]c12 [compound 247, 7-chloro-2-[[4-(4-pyridyl)piperazin-1-yl]methyl]-1H-indole] | +++ (+++: <−6)
4 | Clc1c(CN2CCN(c3ccncc3)CC2)[nH]c2ccccc12 [compound 248, 3-chloro-2-[[4-(4-pyridyl)piperazin-1-yl]methyl]-1H-indole] | +++ (+++: <−6)
5 | O=C(Nc1ccc2[nH]c(CN3CCN(c4ccncc4)CC3)cc2c1)c1ccccc1 [compound 249, N-[2-[[4-(4-pyridyl)piperazin-1-yl]methyl]-1H-indol-5-yl]benzamide] | +++ (+++: <−6)
6 | O=C(Nc1ccccc1)c1ccc2[nH]c(CN3CCN(c4ccncc4)CC3)cc2c1 [compound 250, N-phenyl-2-[[4-(4-pyridyl)piperazin-1-yl]methyl]-1H-indole-5-carboxamide] | + (+: >−5)
7 | CS(=O)(=O)Nc1ccc2[nH]c(CN3CCN(c4ccncc4)CC3)cc2c1 [compound 251, N-[2-[[4-(4-pyridyl)piperazin-1-yl]methyl]-1H-indol-5-yl]methanesulfonamide] | + (+: >−5)
8 | Cc1ccc2[nH]c(CN3CCN(c4ccncc4)CC3)cc2c1 [compound 252, 5-methyl-2-[[4-(4-pyridyl)piperazin-1-yl]methyl]-1H-indole] | ++ (++: −5 to −6)
9 | c1ccc2[nH]c(CN3CCN(c4ccncc4)CC3)nc2c1 [compound 253, 2-[[4-(4-pyridyl)piperazin-1-yl]methyl]-1H-benzimidazole] | ++ (++: −5 to −6)
10 | Cc1ncnc(N2CCN(Cc3nc4ccccc4s3)CC2)c1C [compound 254, 2-[[4-(5,6-dimethylpyrimidin-4-yl)piperazin-1-yl]methyl]-1,3-benzothiazole] | +++ (+++: <−6)
11 | FC(F)(F)c1ccc2cc(CN3CCN(c4ccncc4)CC3)[nH]c2c1 [compound 255, 2-[[4-(4-pyridyl)piperazin-1-yl]methyl]-6-(trifluoromethyl)-1H-indole] | +++ (+++: <−6)
12 | N#Cc1ccc2[nH]c(CN3CCN(c4ccncc4)CC3)cc2c1 [compound 256, 2-[[4-(4-pyridyl)piperazin-1-yl]methyl]-1H-indole-5-carbonitrile] | +++ (+++: <−6)
13 | Cc1ncnc(N2CCN(Cc3nc4ccccc4[nH]3)CC2)c1C [compound 257, 2-[[4-(5,6-dimethylpyrimidin-4-yl)piperazin-1-yl]methyl]-1H-benzimidazole] | ++ (++: −5 to −6)
14 | CC(=O)Nc1ccc2[nH]c(CN3CCN(c4ccncc4)CC3)cc2c1 [compound 258, N-[2-[[4-(4-pyridyl)piperazin-1-yl]methyl]-1H-indol-5-yl]acetamide] | ++ (++: −5 to −6)
15 | Cc1ncnc(N2CCN(Cc3nc4ccccc4o3)CC2)c1C [compound 259, 2-[[4-(5,6-dimethylpyrimidin-4-yl)piperazin-1-yl]methyl]-1,3-benzoxazole] | +++ (+++: <−6)
16 | COCCOc1ccc2[nH]c(CN3CCN(c4ccncc4)CC3)cc2c1 [compound 260, 5-(2-methoxyethoxy)-2-[[4-(4-pyridyl)piperazin-1-yl]methyl]-1H-indole] | ++ (++: −5 to −6)
17 | COCCOc1ccc2c(c1)cc(CN1CCN(c3ccncc3)CC1)n2CCOC [compound 261, 5-(2-methoxyethoxy)-1-(2-methoxyethyl)-2-((4-(pyridin-4-yl)piperazin-1-yl)methyl)-1H-indole] | −
18 | c1cc(CN2CCN(c3ccncc3)CC2)c2[nH]ccc2c1 [compound 262, 7-[[4-(4-pyridyl)piperazin-1-yl]methyl]-1H-indole] | −
19 | c1cc(CN2CCN(c3ccncc3)CC2)c2cc[nH]c2c1 [compound 263, 4-[[4-(4-pyridyl)piperazin-1-yl]methyl]-1H-indole] | −
20 | c1cc(N2CCN(Cc3ccc4[nH]ccc4c3)CC2)ccn1 [compound 264, 5-[[4-(4-pyridyl)piperazin-1-yl]methyl]-1H-indole] | −
21 | c1cc(N2CCN(Cc3ccc4cc[nH]c4c3)CC2)ccn1 [compound 265, 6-[[4-(4-pyridyl)piperazin-1-yl]methyl]-1H-indole] | ++ (++: −5 to −6)

Row | SMILES | COL1 Efficacy (LogEC50)
22 | Cc1cncnc1N1CCN(Cc2cc3ccccc3[nH]2)CC1 [compound 266, 2-[[4-(5-methylpyrimidin-4-yl)piperazin-1-yl]methyl]-1H-indole formate] | + (+: >−5)
23 | OC1(c2ccncc2)CCN(Cc2cc3ccccc3[nH]2)CC1 [compound 267, 1-(1H-indol-2-ylmethyl)-4-(4-pyridyl)piperidin-4-ol] | −
24 | c1ccc2[nH]c(CN3CCC(Oc4ccncc4)CC3)cc2c1 [compound 268, 2-[[4-(4-pyridyloxy)-1-piperidyl]methyl]-1H-indole] | ++ (++: −5 to −6)
25 | c1ccc2[nH]c(CN3CCC(c4ccncc4)CC3)cc2c1 [compound 269, 2-[[4-(4-pyridyl)-1-piperidyl]methyl]-1H-indole] | −
26 | c1cc(N2CCN(Cc3cc4ccncc4[nH]3)CC2)ccn1 [compound 270, 2-[[4-(4-pyridyl)piperazin-1-yl]methyl]-1H-pyrrolo[2,3-c]pyridine] | −
27 | c1ccc2[nH]c(CN3CC4(C3)CN(c3ccncc3)C4)cc2c1 [compound 271, 2-[[2-(4-pyridyl)-2,6-diazaspiro[3.3]heptan-6-yl]methyl]-1H-indole] | −
28 | c1ccc2[nH]c(CN3CCC4(CCN(c5ccncc5)C4)C3)cc2c1 (centres unmarked) [compound 272, 7-(1H-indol-2-ylmethyl)-2-(4-pyridyl)-2,7-diazaspiro[4.4]nonane] | −
29 | c1ccc2[nH]c(CN3CCCN(c4ccncc4)CC3)cc2c1 [compound 273, 2-[[4-(4-pyridyl)-1,4-diazepan-1-yl]methyl]-1H-indole] | −
30 | c1ccn2cc(CN3CCN(c4ccncc4)CC3)nc2c1 [compound 274, 2-[[4-(4-pyridyl)piperazin-1-yl]methyl]imidazo[1,2-a]pyridine] | −
31 | c1cnc2[nH]c(CN3CCN(c4ccncc4)CC3)cc2c1 [compound 275, 2-[[4-(4-pyridyl)piperazin-1-yl]methyl]-1H-pyrrolo[2,3-b]pyridine] | −
32 | C[C@@H]1CN(Cc2cc3ccccc3[nH]2)C[C@H](C)N1c1ccncc1 [compound 276, 2-[[(3S,5R)-3,5-dimethyl-4-(4-pyridyl)piperazin-1-yl]methyl]-1H-indole] | −
33 | c1ccc2c(CN3CCN(c4ccncc4)CC3)c[nH]c2c1 [compound 277, 3-((4-(pyridin-4-yl)piperazin-1-yl)methyl)-1H-indole bis 2,2,2-trifluoroacetate] | −
34 | c1ccc2[nH]c(CN3CCN(c4cncnc4)CC3)cc2c1 [compound 278, 2-[(4-pyrimidin-5-ylpiperazin-1-yl)methyl]-1H-indole formate] | −
35 | c1ccc2[nH]c(CN3CCN(c4ccnnc4)CC3)cc2c1 [compound 279, 2-[(4-pyridazin-4-ylpiperazin-1-yl)methyl]-1H-indole formate] | −
36 | N#Cc1c(CN2CCN(c3ccncc3)CC2)[nH]c2ccccc12 [compound 280, 2-[[4-(4-pyridyl)piperazin-1-yl]methyl]-1H-indole-3-carbonitrile] | −
37 | c1ccc2oc(CN3CCN(c4ccncn4)CC3)nc2c1 [compound 281, 2-[(4-pyrimidin-4-ylpiperazin-1-yl)methyl]-1,3-benzoxazole hemiformate] | + (+: >−5)
38 | c1ccc2oc(CN3CCN(c4ccncc4)CC3)nc2c1 [compound 282, 2-[[4-(4-pyridyl)piperazin-1-yl]methyl]-1,3-benzoxazole formate] | + (+: >−5)
39 | c1ccn2nc(CN3CCN(c4ccncc4)CC3)cc2c1 [compound 283, 2-((4-(pyridin-4-yl)piperazin-1-yl)methyl)pyrazolo[1,5-a]pyridine 2,2,2-trifluoroacetate] | −
40 | c1cnc2cc(CN3CCN(c4ccncc4)CC3)[nH]c2c1 [compound 284, 2-[[4-(4-pyridyl)piperazin-1-yl]methyl]-1H-pyrrolo[3,2-b]pyridine] | −
41 | c1ccc2[nH]c(CN3C[C@@H]4CN(c5ccncc5)C[C@@H]4C3)cc2c1 [compound 285, 2-[[(3aS,6aR)-5-(4-pyridyl)-1,3,3a,4,6,6a-hexahydropyrrolo[3,4-c]pyrrol-2-yl]methyl]-1H-indole] | −
